ChEMBL document CHEMBL4715829, “Heterodimeric Rifampicin-Tobramycin conjugates break intrinsic resistance of Pseudomonas aeruginosa to doxycycline and chloramphenicol in vitro and in a Galleria mellonella in vivo model” (Eur J Med Chem, 2019)

Legend:
Pseudomonas aeruginosa [1] = assay: Antibacterial activity against Pseudomonas aeruginosa 100036 assessed as fractional inhibitory concentration index in presence of chloramphenicol incubated for 18 hrs by broth microdilution assay; assay type: functional
Pseudomonas aeruginosa [2] = assay: Antibacterial activity against Pseudomonas aeruginosa 259-96918 assessed as reduction in bacterial growth incubated for 18 hrs by broth microdilution assay; assay type: functional
Pseudomonas aeruginosa [3] = assay: Antibacterial activity against Pseudomonas aeruginosa 200 harboring efflux mutant assessed as reduction in bacterial growth incubated for 18 hrs by broth microdilution assay; assay type: functional
Pseudomonas aeruginosa [4] = assay: Antibacterial activity against Pseudomonas aeruginosa 264-101354 assessed as fractional inhibitory concentration index in presence of chloramphenicol incubated for 18 hrs by broth microdilution assay; assay type: functional
Pseudomonas aeruginosa [5] = assay: Antibacterial activity against Pseudomonas aeruginosa 262-101856 assessed as reduction in bacterial growth incubated for 18 hrs by broth microdilution assay; assay type: functional
[6] = Hemolytic activity in porcine erythrocyte at 1024 ug/ml incubated for 1 hr; assay type: ADME, cell-based, Sus scrofa; settings: pig, porcine erythrocytes, at 1024 µg/mL, read-out: Activity
Pseudomonas aeruginosa [7] = assay: Antibacterial activity against Pseudomonas aeruginosa PAO1 assessed as reduction in bacterial growth by measuring rifampicin MIC at <=[…] uM in presence of rifampicin incubated for 18 hrs by broth microdilution assay based checkerboard assay (reference value: […] microg/ml); assay type: functional; settings: dose microM <=10
Pseudomonas aeruginosa [8] = assay: Antibacterial activity against Pseudomonas aeruginosa ATCC 27853 assessed as reduction in bacterial growth incubated for 18 hrs by broth microdilution assay; assay type: functional
Pseudomonas aeruginosa [9] = assay: Antibacterial activity against Pseudomonas aeruginosa PAO1 assessed as reduction in bacterial growth by measuring pleuromutilin MIC at <=10 uM in presence of pleuromutilin incubated for 18 hrs by broth microdilution assay based checkerboard assay (reference value: 512 microg/ml); assay type: functional; settings: dose microM <=10
Pseudomonas aeruginosa [10] = assay: Antibacterial activity against Pseudomonas aeruginosa 750 harboring efflux mutant assessed as reduction in bacterial growth incubated for 18 hrs by broth microdilution assay; assay type: functional
Pseudomonas aeruginosa [11] = assay: Antibacterial activity against Pseudomonas aeruginosa PAO1 assessed as fractional inhibitory concentration index in presence of Cefotaxime incubated for 18 hrs by broth microdilution assay based checkerboard assay; assay type: functional
Pseudomonas aeruginosa [12] = assay: Antibacterial activity against Pseudomonas aeruginosa PAO1 assessed as fractional inhibitory concentration index in presence of Meropenem incubated for 18 hrs by broth microdilution assay based checkerboard assay; assay type: functional
Pseudomonas aeruginosa [13] = assay: Antibacterial activity against Pseudomonas aeruginosa PAO1 assessed as reduction in bacterial growth by measuring meropenem MIC at <=10 uM in presence of meropenem incubated for 18 hrs by broth microdilution assay based checkerboard assay (reference value: 1 microg/ml); assay type: functional; settings: dose microM <=10
Enterococcus faecalis = assay: Antibacterial activity against Enterococcus faecalis ATCC 29212 assessed as reduction in bacterial growth incubated for 18 hrs by broth microdilution assay; assay type: functional
Pseudomonas aeruginosa [14] = assay: Antibacterial activity against Pseudomonas aeruginosa PAO1 assessed as reduction in bacterial growth by measuring aztreonam MIC at <=10 uM in presence of aztreonam incubated for 18 hrs by broth microdilution assay based checkerboard assay (reference value: 4 microg/ml); assay type: functional; settings: dose microM <=10
[15] = Cytotoxicity against human HepG2 cells assessed as cell viability at <10 uM incubated for 48 hrs prestoblue assay; assay type: cell-based; settings: read-out: Activity
Pseudomonas aeruginosa [16] = assay: Antibacterial activity against Pseudomonas aeruginosa 264-101354 assessed as fractional inhibitory concentration index in presence of doxycycline incubated for 18 hrs by broth microdilution assay; assay type: functional
Pseudomonas aeruginosa [17] = assay: Antibacterial activity against Pseudomonas aeruginosa 262-101856 assessed as fractional inhibitory concentration index in presence of doxycycline incubated for 18 hrs by broth microdilution assay; assay type: functional
Pseudomonas aeruginosa [18] = assay: Antibacterial activity against Pseudomonas aeruginosa PAO1 assessed as fractional inhibitory concentration index in presence of Aztreonam incubated for 18 hrs by broth microdilution assay based checkerboard assay; assay type: functional
Enterococcus faecium = assay: Antibacterial activity against Enterococcus faecium ATCC 27270 assessed as reduction in bacterial growth incubated for 18 hrs by broth microdilution assay; assay type: functional
[19] = tested on: Stenotrophomonas maltophilia; assay: Antibacterial activity against Stenotrophomonas maltophilia CAN-ICU 62584 assessed as reduction in bacterial growth incubated for 18 hrs by broth microdilution assay; assay type: functional
Staphylococcus aureus = assay: Antibacterial activity against Staphylococcus aureus ATCC 29213 assessed as reduction in bacterial growth incubated for 18 hrs by broth microdilution assay; assay type: functional
Pseudomonas aeruginosa [20] = assay: Antibacterial activity against Pseudomonas aeruginosa PAO1 assessed as reduction in bacterial growth by measuring vancomycin MIC at <=10 uM in presence of vancomycin incubated for 18 hrs by broth microdilution assay based checkerboard assay (reference value: 256 microg/ml); assay type: functional; settings: dose microM <=10
Pseudomonas aeruginosa [21] = assay: Antibacterial activity against Pseudomonas aeruginosa PAO1 assessed as fractional inhibitory concentration index in presence of Fosfomycin incubated for 18 hrs by broth microdilution assay based checkerboard assay; assay type: functional
Pseudomonas aeruginosa [22] = assay: Antibacterial activity against Pseudomonas aeruginosa 101243 assessed as reduction in bacterial growth incubated for 18 hrs by broth microdilution assay; assay type: functional
Pseudomonas aeruginosa [23] = assay: Antibacterial activity against Pseudomonas aeruginosa PAO1 assessed as reduction in bacterial growth by measuring novobiocin MIC at <=10 uM in presence of novobiocin incubated for 18 hrs by broth microdilution assay based checkerboard assay (reference value: 512 microg/ml); assay type: functional; settings: dose microM <=10
[24] = Cytotoxicity against human HepG2 cells assessed as cell viability at 50 uM incubated for 48 hrs by prestoblue assay; assay type: cell-based; settings: read-out: Activity
Pseudomonas aeruginosa [25] = assay: Antibacterial activity against Pseudomonas aeruginosa PAO1 assessed as fractional inhibitory concentration index in presence of Pleuromutilin incubated for 18 hrs by broth microdilution assay based checkerboard assay; assay type: functional
[26] = Cytotoxicity against human HEK293 cells assessed as cell viability at <10 uM incubated for 48 hrs by prestoblue assay; assay type: cell-based; settings: read-out: Activity
Pseudomonas aeruginosa [27] = assay: Antibacterial activity against Pseudomonas aeruginosa PAO1 assessed as fractional inhibitory concentration index in presence of Clindamycin incubated for 18 hrs by broth microdilution assay based checkerboard assay; assay type: functional
Pseudomonas aeruginosa [28] = assay: Antibacterial activity against Pseudomonas aeruginosa PAO1 assessed as reduction in bacterial growth by measuring clindamycin MIC at <=10 uM in presence of clindamycin incubated for 18 hrs by broth microdilution assay based checkerboard assay (reference value: 1024 microg/ml); assay type: functional; settings: dose microM <=10
Pseudomonas aeruginosa [29] = assay: Antibacterial activity against Pseudomonas aeruginosa 262-101856 assessed as fractional inhibitory concentration index in presence of chloramphenicol incubated for 18 hrs by broth microdilution assay; assay type: functional
Pseudomonas aeruginosa [30] = assay: Antibacterial activity against Pseudomonas aeruginosa 260-97103 assessed as fractional inhibitory concentration index in presence of doxycycline incubated for 18 hrs by broth microdilution assay; assay type: functional
Pseudomonas aeruginosa [31] = assay: Antibacterial activity against Pseudomonas aeruginosa 259-96918 assessed as fractional inhibitory concentration index in presence of doxycycline incubated for 18 hrs by broth microdilution assay; assay type: functional
Pseudomonas aeruginosa [32] = assay: Antibacterial activity against Pseudomonas aeruginosa PAO1 assessed as reduction in bacterial growth by measuring minocycline MIC at <=10 uM in presence of minocycline incubated for 18 hrs by broth microdilution assay based checkerboard assay (reference value: 8 microg/ml); assay type: functional; settings: dose microM <=10
Pseudomonas aeruginosa [33] = assay: Antibacterial activity against Pseudomonas aeruginosa PAO1 assessed as fractional inhibitory concentration index in presence of Ceftazidime incubated for 18 hrs by broth microdilution assay based checkerboard assay; assay type: functional
Pseudomonas aeruginosa [34] = assay: Antibacterial activity against gentamicin, tobramycin-resistant Pseudomonas aeruginosa CANWARD 96846 assessed as reduction in bacterial growth incubated for 18 hrs by broth microdilution assay; assay type: functional

CO[C@H]1/C=C/O[C@@]2(C)Oc3c(C)c(O)c4c(O)c(c(/C=N/N5CCN(Cc6cn(CCCCCCCCCCCCO[C@@H]7[C@@H](O[C@H]8O[C@H](CO)[C@@H](O)[C@H](N)[C@H]8O)[C@H](N)C[C@H](N)[C@H]7O[C@H]7O[C@H](CN)[C@@H](O)C[C@H]7N)nn6)CC5)c(O)c4c3C2=O)NC(=O)/C(C)=C\C=C\[C@H](C)[C@H](O)[C@@H](C)[C@@H](O)[C@@H](C)[C@H](OC(C)=O)[C@@H]1C.O=C(O)C(F)(F)F.O=C(O)C(F)(F)F.O=C(O)C(F)(F)F.O=C(O)C(F)(F)F.O=C(O)C(F)(F)F
fractional inhibitory concentration index (FICI) (Pseudomonas aeruginosa [1]): 0.067 | MIC (Pseudomonas aeruginosa [2]): > 128 µg/mL | MIC (Pseudomonas aeruginosa [3]): 128 µg/mL | fractional inhibitory concentration index (FICI) (Pseudomonas aeruginosa [4]): 0.063 | MIC (Pseudomonas aeruginosa [5]): > 256 µg/mL | hemolysis at 1 h, 1024 ug/ml [6]: < 2% | MIC (Pseudomonas aeruginosa [7]): 2 µg/mL | MIC (Pseudomonas aeruginosa [8]): > 32 µg/mL | MIC (Pseudomonas aeruginosa [9]): 256 µg/mL | MIC (Pseudomonas aeruginosa [10]): 128 µg/mL | fractional inhibitory concentration index (FICI) (Pseudomonas aeruginosa [11]): 1.03 | fractional inhibitory concentration index (FICI) (Pseudomonas aeruginosa [12]): 1.03 | MIC (Pseudomonas aeruginosa [13]): 1 µg/mL | MIC (Enterococcus faecalis): > 32 µg/mL | MIC (Pseudomonas aeruginosa [14]): 4 µg/mL | viability at 48 h [15]: > 90% | fractional inhibitory concentration index (FICI) (Pseudomonas aeruginosa [16]): 0.078 | fractional inhibitory concentration index (FICI) (Pseudomonas aeruginosa [17]): <0.07 | fractional inhibitory concentration index (FICI) (Pseudomonas aeruginosa [18]): 1.03 | MIC (Enterococcus faecium): > 32 µg/mL | MIC [19]: > 32 µg/mL | MIC (Staphylococcus aureus): 16 µg/mL | MIC (Pseudomonas aeruginosa [20]): 128 µg/mL | fractional inhibitory concentration index (FICI) (Pseudomonas aeruginosa [21]): 0.28 | MIC (Pseudomonas aeruginosa [22]): 256 µg/mL | MIC (Pseudomonas aeruginosa [23]): 128 µg/mL | viability at 48 h, 50 µM [24]: > 70% | fractional inhibitory concentration index (FICI) (Pseudomonas aeruginosa [25]): 0.53 | viability at 48 h [26]: > 90% | fractional inhibitory concentration index (FICI) (Pseudomonas aeruginosa [27]): 0.26 | MIC (Pseudomonas aeruginosa [28]): 256 µg/mL | fractional inhibitory concentration index (FICI) (Pseudomonas aeruginosa [29]): <0.125 | fractional inhibitory concentration index (FICI) (Pseudomonas aeruginosa [30]): <0.133 | fractional inhibitory concentration index (FICI) (Pseudomonas aeruginosa [31]): <0.133 | MIC (Pseudomonas aeruginosa [32]): 2 µg/mL | fractional inhibitory concentration index (FICI) (Pseudomonas aeruginosa [33]): 1.03 | MIC (Pseudomonas aeruginosa [34]): > 32 µg/mL
